Reference: US8624034B2, “Fluoro-pyridinone derivatives useful as antibacterial agents” (Pfizer Inc., priority 2011, dated 2014)
Converted amounts (≈) assume the structure as drawn.

Assays:
[1] = system: Acinetobacter baumannii/haemolyticus, multidrug-resistant clinical isolate (AB-3167); assay: MIC determination, AB-3167; type: cell-based; details: Table 3, lower of duplicate values
Method in brief: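 MIC read visually after overnight growth across 2-fold concentration steps in the CLSI dilution method against the multidrug-resistant clinical isolate. Duplicate determinations, lower value reported when within 2-fold, otherwise repeated; every run checked with control organisms and reference drugs.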

PA:UC12120 = assay: MIC determination, PA:UC12120 (Table 3); type: cell-based, Pseudomonas aeruginosa; details: Pseudomonas aeruginosa, UC12120, Table 3, lower of duplicate values
Method in brief: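 CLSI broth dilution MIC with 2-fold concentration steps, overnight incubation; MIC is the lowest concentration visibly inhibiting growth versus drug-free control. Run in duplicate, lower value reported when within 2-fold; control organisms and reference compounds required within defined ranges.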

[2] = system: Escherichia coli EC-1: VOGEL, mouse virulent; assay: MIC determination, EC-1; type: cell-based; details: Escherichia coli, read-out: EC-1 (MIC), Table 3, lower of duplicate values
Method in brief: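 Duplicate runs differing by more than 2-fold were repeated, and otherwise the lower MIC was kept. The test organism was E. coli EC-1 (VOGEL, mouse virulent), incubated overnight across 2-fold compound dilutions following CLSI guidelines. The MIC was read visually as the lowest concentration inhibiting growth relative to drug-free control.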

[3] = target: T1, Pseudomonas aeruginosa LpxC enzyme (Pseudomonas aeruginosa, UniProt P47205); assay: IC50 assay, LpxC enzyme from P. aeruginosa (PA LpxC enzyme IC50); type: biochemical; details: Table 3; LpxC enzyme 0.1 nM, 25° C., 1 hour; read-out: PA:IC50
T1 construct: made in house; host or cells: E. coli
T1 sequence (P47205 1-303): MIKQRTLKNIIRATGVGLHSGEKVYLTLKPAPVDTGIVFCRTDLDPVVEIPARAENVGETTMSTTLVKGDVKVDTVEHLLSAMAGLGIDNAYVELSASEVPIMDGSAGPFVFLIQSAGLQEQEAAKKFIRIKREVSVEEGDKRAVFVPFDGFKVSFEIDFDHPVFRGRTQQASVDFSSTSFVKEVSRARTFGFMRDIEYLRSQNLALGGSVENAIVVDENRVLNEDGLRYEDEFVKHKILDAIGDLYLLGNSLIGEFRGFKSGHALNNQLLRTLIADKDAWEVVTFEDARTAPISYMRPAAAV
Method in brief: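 IC50 values came from percent conversion, referenced to a no-enzyme control. Conversion was read by RapidFire HTMS mass spectrometry after HCl quench of the 1 h enzyme reaction.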

Row | SMILES | MIC [1] [µg/mL] | MIC (PA:UC12120) [µg/mL] | MIC [2] [µg/mL] | IC50 [3] [nM]
1 | CN(C)C(=O)c1ccc(-c2cc(=O)n(CCC(C)(C(=O)NO)S(C)(=O)=O)cc2F)cc1 (stereo not shown) [Example 68, 4-{5-fluoro-1-[4-(hydroxyamino)-3-methyl-3-(methylsulfonyl)-4-oxobutyl]-2-oxo-1,2-dihydropyridin-4-yl}-N,N-dimethylbenzamide] | > 64 | > 64 | > 64 | 34.3
2 | CC(CCn1cc(F)c(-c2ccc(CC#N)cc2)cc1=O)(C(=O)NO)S(C)(=O)=O (stereo not shown) [Example 91, 4-{4-[4-(cyanomethyl)phenyl]-5-fluoro-2-oxopyridin-1(2H)-yl}-N-hydroxy-2-methyl-2-(methylsulfonyl)butanamide] | > 64 | 4 (≈ 9.49 µM) | 16 (≈ 38 µM) | 2.3
3 | CC(CCn1cc(F)c(-c2ccc(C#N)cc2)cc1=O)(C(=O)NO)S(C)(=O)=O (stereo not shown) [Example 124, 4-[4-(4-cyanophenyl)-5-fluoro-2-oxopyridin-1(2H)-yl]-N-hydroxy-2-methyl-2-(methylsulfonyl)butanamide] | > 64 | 8 (≈ 19.6 µM) | 32 (≈ 78.5 µM) | 3.4
4 | CC(CCn1cc(F)c(-c2ccc(Cl)cn2)cc1=O)(C(=O)NO)S(C)(=O)=O (stereo not shown) [Example 90, 4-(5-chloro-5′-fluoro-2′-oxo-2,4′-bipyridin-1′(2′H)-yl)-N-hydroxy-2-methyl-2-(methylsulfonyl)butanamide] | > 64 | 16 (≈ 38.3 µM) | 64 (≈ 153 µM) | 12.5
5 | CC(CCn1cc(F)c(-c2ccc3c(c2)CCO3)cc1=O)(C(=O)NO)S(C)(=O)=O (stereo not shown) [Example 120, 4-[4-(2,3-dihydro-1-benzofuran-5-yl)-5-fluoro-2-oxopyridin-1(2H)-yl]-N-hydroxy-2-methyl-2-(methylsulfonyl)butanamide] | > 64 | 1 (≈ 2.36 µM) | 2 (≈ 4.71 µM) | 0.9
6 | CC(CCn1cc(F)c(-c2cnc(N3CCCC3)nc2)cc1=O)(C(=O)NO)S(C)(=O)=O (stereo not shown) [Example 106, 4-[5-fluoro-2-oxo-4-(2-pyrrolidin-1-ylpyrimidin-5-yl)pyridin-1(2H)-yl]-N-hydroxy-2-methyl-2-(methylsulfonyl)butanamide] | > 64 | 64 (≈ 141 µM) | 32 (≈ 70.6 µM) | 56.8
7 | CC(CCn1cc(F)c(-c2cccc(C#N)c2)cc1=O)(C(=O)NO)S(C)(=O)=O (stereo not shown) [Example 82, 4-[4-(3-cyanophenyl)-5-fluoro-2-oxopyridin-1(2H)-yl]-N-hydroxy-2-methyl-2-(methylsulfonyl)butanamide] | > 64 | 8 (≈ 19.6 µM) | 64 (≈ 157 µM) | 13
8 | CC(=O)Nc1cccc(-c2cc(=O)n(CCC(C)(C(=O)NO)S(C)(=O)=O)cc2F)c1 (stereo not shown) [Example 61, 4-[4-(3-acetamidophenyl)-5-fluoro-2-oxopyridin-1(2H)-yl]-N-hydroxy-2-methyl-2-(methylsulfonyl)butanamide] | > 64 | > 64 | > 64 | > 100
9 | COc1ccc(-c2cc(=O)n(CCC(C)(C(=O)NO)S(C)(=O)=O)cc2F)cc1OC (stereo not shown) [Example 98, 4-[4-(3,4-dimethoxyphenyl)-5-fluoro-2-oxopyridin-1(2H)-yl]-N-hydroxy-2-methyl-2-(methylsulfonyl)butanamide] | > 64 | 32 (≈ 72.3 µM) | 64 (≈ 145 µM) | 28.5
10 | CC(CCn1cc(F)c(-c2ccc3c(c2)C(=O)NC3)cc1=O)(C(=O)NO)S(C)(=O)=O (stereo not shown) [Example 50, 4-[5-fluoro-2-oxo-4-(3-oxo-2,3-dihydro-1H-isoindol-5-yl)pyridin-1(2H)-yl]-N-hydroxy-2-methyl-2-(methylsulfonyl)butanamide] | > 64 | > 64 | > 64 | 68.2
11 | CC(CCn1cc(F)c(-c2cccc(F)c2)cc1=O)(C(=O)NO)S(C)(=O)=O (stereo not shown) [Example 116, 4-[5-fluoro-4-(3-fluorophenyl)-2-oxopyridin-1(2H)-yl]-N-hydroxy-2-methyl-2-(methylsulfonyl)butanamide] | > 64 | 1 (≈ 2.5 µM) | 4 (≈ 9.99 µM) | 1
12 | COc1ncccc1-c1cc(=O)n(CCC(C)(C(=O)NO)S(C)(=O)=O)cc1F (stereo not shown) [Example 69, 4-(5′-fluoro-2-methoxy-2′-oxo-3,4′-bipyridin-1′(2′H)-yl)-N-hydroxy-2-methyl-2-(methylsulfonyl)butanamide] | > 64 | 8 (≈ 19.4 µM) | 64 (≈ 155 µM) | 16.6
13 | COc1ccccc1-c1cc(=O)n(CCC(C)(C(=O)NO)S(C)(=O)=O)cc1F (stereo not shown) [Example 125, 4-[5-fluoro-4-(2-methoxyphenyl)-2-oxopyridin-1(2H)-yl]-N-hydroxy-2-methyl-2-(methylsulfonyl)butanamide] | > 64 | 8 (≈ 19.4 µM) | 64 (≈ 155 µM) | 12.9
14 | CN1Cc2cc(-c3cc(=O)n(CCC(C)(C(=O)NO)S(C)(=O)=O)cc3F)ccc2C1=O (stereo not shown) [Example 64, 4-[5-fluoro-4-(2-methyl-1-oxo-2,3-dihydro-1H-isoindol-5-yl)-2-oxopyridin-1(2H)-yl]-N-hydroxy-2-methyl-2-(methylsulfonyl)butanamide] | > 64 | 64 (≈ 142 µM) | > 64 | 7.2
15 | CCOc1cccc(-c2cc(=O)n(CCC(C)(C(=O)NO)S(C)(=O)=O)cc2F)c1 (stereo not shown) [Example 112, 4-[4-(3-ethoxyphenyl)-5-fluoro-2-oxopyridin-1(2H)-yl]-N-hydroxy-2-methyl-2-(methylsulfonyl)butanamide] | > 64 | 4 (≈ 9.38 µM) | 2 (≈ 4.69 µM) | 3.1
16 | CC(CCn1cc(F)c(-c2ccc(Cl)c(O)c2)cc1=O)(C(=O)NO)S(C)(=O)=O (stereo not shown) [Example 109, 4-[4-(4-chloro-3-hydroxyphenyl)-5-fluoro-2-oxopyridin-1(2H)-yl]-N-hydroxy-2-methyl-2-(methylsulfonyl)butanamide] | > 64 | 32 (≈ 73.9 µM) | 32 (≈ 73.9 µM) | 7.3
17 | COc1cc(C)cc(-c2cc(=O)n(CCC(C)(C(=O)NO)S(C)(=O)=O)cc2F)c1F (stereo not shown) [Example 111, 4-[5-fluoro-4-(2-fluoro-3-methoxy-5-methylphenyl)-2-oxopyridin-1(2H)-yl]-N-hydroxy-2-methyl-2-(methylsulfonyl)butanamide] | > 64 | 4 (≈ 9 µM) | 4 (≈ 9 µM) | 3
18 | CN(C)c1ncc(-c2cc(=O)n(CCC(C)(C(=O)NO)S(C)(=O)=O)cc2F)cn1 (stereo not shown) [Example 115, 4-{4-[2-(dimethylamino)pyrimidin-5-yl]-5-fluoro-2-oxopyridin-1(2H)-yl}-N-hydroxy-2-methyl-2-(methylsulfonyl)butanamide] | > 64 | 32 (≈ 74.9 µM) | 32 (≈ 74.9 µM) | 74.1
19 | COc1ccc(OC)c(-c2cc(=O)n(CCC(C)(C(=O)NO)S(C)(=O)=O)cc2F)c1 (stereo not shown) [Example 54, 4-[4-(2,5-dimethoxyphenyl)-5-fluoro-2-oxopyridin-1(2H)-yl]-N-hydroxy-2-methyl-2-(methylsulfonyl)butanamide] | > 64 | > 64 | > 64 | > 100
20 | Cc1cc(-c2cc(=O)n(CCC(C)(C(=O)NO)S(C)(=O)=O)cc2F)ccc1C#N (stereo not shown) [Example 114, 4-[4-(4-cyano-3-methylphenyl)-5-fluoro-2-oxopyridin-1(2H)-yl]-N-hydroxy-2-methyl-2-(methylsulfonyl)butanamide] | > 64 | 2 (≈ 4.75 µM) | 4 (≈ 9.49 µM) | 1.3
21 | COc1cccc(-c2cc(=O)n(CCC(C)(C(=O)NO)S(C)(=O)=O)cc2F)c1 (stereo not shown) [Example 100, 4-[5-fluoro-4-(3-methoxyphenyl)-2-oxopyridin-1(2H)-yl]-N-hydroxy-2-methyl-2-(methylsulfonyl)butanamide] | > 64 | 2 (≈ 4.85 µM) | 4 (≈ 9.7 µM) | 2.5
22 | COc1cc(-c2cc(=O)n(CCC(C)(C(=O)NO)S(C)(=O)=O)cc2F)cnc1OC (stereo not shown) [Example 75, 4-(5′-fluoro-5,6-dimethoxy-2′-oxo-3,4′-bipyridin-1′(2′H)-yl)-N-hydroxy-2-methyl-2-(methylsulfonyl)butanamide] | > 64 | > 64 | > 64 | 45.4
